Reference: ChEMBL document CHEMBL5724914, “Linking interpersonal differences in gut microbiota composition and drug biotransformation activity” (2024)

Legend:
[1] = human gut metagenome, 24 h, 2 µM
[2] = human gut metagenome, 24 h, 2 µM; remark: listed apart in the source
[3] = human gut metagenome, 24 h, 2 µM; remark: listed apart in the source
[4] = The drug is tested on Z-006 corresponding to mouse gut metagenome with ENA study accession number: PRJEB37062 and ENA sample accession number: ERS12561806 for biotransformation under anaerobic condition. The drug concentrations were measured over 9 timepoints collected between 0 and 24 hours of incubation by liquid-chromatography-coupled mass spectrometry (LC–MS); settings: 2 µM
[5] = The drug is tested on Z-011 corresponding to mouse gut metagenome with ENA study accession number: PRJEB37062 and ENA sample accession number: ERS12561811 for biotransformation under anaerobic condition. The drug concentrations were measured over 9 timepoints collected between 0 and 24 hours of incubation by liquid-chromatography-coupled mass spectrometry (LC–MS); settings: 2 µM
[6] = The drug is tested on WLS-039 corresponding to human gut metagenome with ENA study accession number: PRJEB37062 and ENA sample accession number: ERS12561746 for biotransformation under anaerobic condition. The drug concentrations were measured over 9 timepoints collected between 0 and 24 hours of incubation by liquid-chromatography-coupled mass spectrometry (LC–MS); settings: 2 µM
[7] = human gut metagenome, 24 h, 2 µM; remark: listed apart in the source
[8] = The drug is tested on WLS-006 corresponding to human gut metagenome with ENA study accession number: PRJEB37062 and ENA sample accession number: ERS12561741 for biotransformation under anaerobic condition. The drug concentrations were measured over 9 timepoints collected between 0 and 24 hours of incubation by liquid-chromatography-coupled mass spectrometry (LC–MS); settings: 2 µM
[9] = The drug is tested on WLS-350 corresponding to human gut metagenome with ENA study accession number: PRJEB37062 and ENA sample accession number: ERS12561789 for biotransformation under anaerobic condition. The drug concentrations were measured over 9 timepoints collected between 0 and 24 hours of incubation by liquid-chromatography-coupled mass spectrometry (LC–MS); settings: 2 µM
[10] = The drug is tested on WLS-010 corresponding to human gut metagenome with ENA study accession number: PRJEB37062 and ENA sample accession number: ERS12561743 for biotransformation under anaerobic condition. The drug concentrations were measured over 9 timepoints collected between 0 and 24 hours of incubation by liquid-chromatography-coupled mass spectrometry (LC–MS); settings: 2 µM
[11] = human gut metagenome, 24 h, 2 µM; remark: listed apart in the source
[12] = human gut metagenome, 24 h, 2 µM; remark: listed apart in the source
[13] = The drug is tested on Z-013 corresponding to rabbit gut metagenome with ENA study accession number: PRJEB37062 and ENA sample accession number: ERS12561813 for biotransformation under anaerobic condition. The drug concentrations were measured over 9 timepoints collected between 0 and 24 hours of incubation by liquid-chromatography-coupled mass spectrometry (LC–MS); settings: 2 µM
[14] = The drug is tested on WLS-370 corresponding to human gut metagenome with ENA study accession number: PRJEB37062 and ENA sample accession number: ERS12561793 for biotransformation under anaerobic condition. The drug concentrations were measured over 9 timepoints collected between 0 and 24 hours of incubation by liquid-chromatography-coupled mass spectrometry (LC–MS); settings: 2 µM
[15] = human gut metagenome, 24 h, 2 µM; remark: listed apart in the source
[16] = The drug is tested on WLS-052 corresponding to human gut metagenome with ENA study accession number: PRJEB37062 and ENA sample accession number: ERS12561747 for biotransformation under anaerobic condition. The drug concentrations were measured over 9 timepoints collected between 0 and 24 hours of incubation by liquid-chromatography-coupled mass spectrometry (LC–MS); settings: 2 µM
[17] = The drug is tested on WLS-082 corresponding to human gut metagenome with ENA study accession number: PRJEB37062 and ENA sample accession number: ERS12561751 for biotransformation under anaerobic condition. The drug concentrations were measured over 9 timepoints collected between 0 and 24 hours of incubation by liquid-chromatography-coupled mass spectrometry (LC–MS); settings: 2 µM
[18] = The drug is tested on WLS-007 corresponding to human gut metagenome with ENA study accession number: PRJEB37062 and ENA sample accession number: ERS12561742 for biotransformation under anaerobic condition. The drug concentrations were measured over 9 timepoints collected between 0 and 24 hours of incubation by liquid-chromatography-coupled mass spectrometry (LC–MS); settings: 2 µM
[19] = human gut metagenome, 24 h, 2 µM; remark: listed apart in the source
[20] = human gut metagenome, 24 h, 2 µM; remark: listed apart in the source
Further: call rule not given here.

| SMILES | Bacterial Biotransformation [1] | Bacterial Biotransformation [2] | Bacterial Biotransformation [3] | Bacterial Biotransformation [4] | Bacterial Biotransformation [5] | Bacterial Biotransformation [6] | Bacterial Biotransformation [7] | Bacterial Biotransformation [8] | Bacterial Biotransformation [9] | Bacterial Biotransformation [10] | Bacterial Biotransformation [11] | Bacterial Biotransformation [12] | Bacterial Biotransformation [13] | Bacterial Biotransformation [14] | Bacterial Biotransformation [15] | Bacterial Biotransformation [16] | Bacterial Biotransformation [17] | Bacterial Biotransformation [18] | Bacterial Biotransformation [19] | Bacterial Biotransformation [20] |
| --- | --- | --- | --- | --- | --- | --- | --- | --- | --- | --- | --- | --- | --- | --- | --- | --- | --- | --- | --- | --- |
| CC(CCc1ccccc1)NCC(O)c1ccc(O)c(C(N)=O)c1 (stereo not given) [LABETALOL] | Compound NOT metabolized | Compound NOT metabolized | Compound metabolized | Compound NOT metabolized | Compound NOT metabolized | Compound NOT metabolized | Compound NOT metabolized | Compound NOT metabolized | Compound NOT metabolized | Compound NOT metabolized | Compound NOT metabolized | Compound NOT metabolized | Compound NOT metabolized | Compound NOT metabolized | Compound NOT metabolized | Compound NOT metabolized | Compound NOT metabolized | Compound NOT metabolized | Compound NOT metabolized | Compound NOT metabolized |
| CC(C)(C)NCC(O)COc1cccc2c1CC(O)C(O)C2 (stereo not given) [NADOLOL] | Compound NOT metabolized | Compound NOT metabolized | Compound metabolized | Compound NOT metabolized | Compound metabolized | Compound NOT metabolized | Compound NOT metabolized | Compound NOT metabolized | Compound metabolized | Compound NOT metabolized | Compound metabolized | Compound NOT metabolized | Compound NOT metabolized | Compound NOT metabolized | Compound NOT metabolized | Compound NOT metabolized | Compound NOT metabolized | Compound NOT metabolized | Compound NOT metabolized | Compound NOT metabolized |
| CCN(CC)CCNC(=O)c1cc(S(C)(=O)=O)ccc1OC [TIAPRIDE] | Compound NOT metabolized | Compound NOT metabolized | Compound NOT metabolized | Compound NOT metabolized | Compound metabolized | Compound NOT metabolized | Compound NOT metabolized | Compound NOT metabolized | Compound NOT metabolized | Compound NOT metabolized | Compound metabolized | Compound NOT metabolized | Compound NOT metabolized | Compound NOT metabolized | Compound NOT metabolized | Compound NOT metabolized | Compound NOT metabolized | Compound NOT metabolized | Compound NOT metabolized | Compound NOT metabolized |
| C[N+]12CCC(CC1)C(OC(=O)C(O)(c1ccccc1)c1ccccc1)C2.[Br-] (stereo not given) [CLIDINIUM BROMIDE] | Compound NOT metabolized | Compound NOT metabolized | Compound metabolized | Compound NOT metabolized | Compound NOT metabolized | Compound metabolized | Compound NOT metabolized | Compound NOT metabolized | Compound metabolized | Compound NOT metabolized | Compound metabolized | Compound NOT metabolized | Compound NOT metabolized | Compound metabolized | Compound metabolized | Compound metabolized | Compound NOT metabolized | Compound NOT metabolized | Compound NOT metabolized | Compound NOT metabolized |
| CCCN1C[C@H](CSC)C[C@@H]2c3cccc4[nH]cc(c34)C[C@H]21.CS(=O)(=O)O [PERGOLIDE MESYLATE] | Compound NOT metabolized | Compound NOT metabolized | Compound NOT metabolized | Compound NOT metabolized | Compound NOT metabolized | Compound NOT metabolized | Compound NOT metabolized | Compound NOT metabolized | Compound NOT metabolized | Compound NOT metabolized | Compound NOT metabolized | Compound NOT metabolized | Compound NOT metabolized | Compound metabolized | Compound NOT metabolized | Compound NOT metabolized | Compound NOT metabolized | Compound NOT metabolized | Compound NOT metabolized | Compound NOT metabolized |
| O=C1C(CC[S+]([O-])c2ccccc2)C(=O)N(c2ccccc2)N1c1ccccc1 (stereo not given) [SULFINPYRAZONE] | Compound NOT metabolized | Compound metabolized | Compound metabolized | Compound NOT metabolized | Compound NOT metabolized | Compound metabolized | Compound metabolized | Compound metabolized | Compound metabolized | Compound metabolized | Compound metabolized | Compound metabolized | Compound NOT metabolized | Compound metabolized | Compound metabolized | Compound metabolized | Compound metabolized | Compound metabolized | Compound metabolized | Compound metabolized |
